The values that follow are results of earlier work, collected in patent publication US20070232537A1, “INTRANASAL PYY FORMULATIONS WITH IMPROVED TRANSMUCOSAL PHARMACOKINETICS” (Nastech Pharmaceutical Company Inc., priority 2005, published 2007).

For series [1] the following is noted: anesthetized rats; increased from 7.5.
The conditions of series [2]: aqueous solution at physiologic pH.

In the case of “2-alkyl-4-hydroxyquinolines [pyo compound]”, the “concentration producing ciliostasis / inhibiting ciliary motility” value in the series with ciliary motility was 50 µg/mL. Turning to `CC(=O)N[C@@H](CS)C(=O)O` [N-acetyl-L-cysteine], the “nasal bioavailability of human growth hormone” value in series [1] is 12.2%.

With `CC(C)CC(N)B(O)O` (stereo not drawn) [boro-leucine], in the series on aminopeptidases, the “times more effective in enzyme inhibition than bestatin” value is given as “more than 100 times” and the “times more effective in enzyme inhibition than puromycin” value is given as “more than 1000 times”. Regarding `CCN(CC)/[N+]([O-])=N/O.CCNCC` [diethylamine/NO], the “NO release rate (time)” value in series [2] was less than 3 min. Take `NCCN(CCN)/[N+]([O-])=N/O` [diethylenetriamine/NO]: the “NO release rate (time)” value in series [2] was “approximately 20 hours”.
